The source of these data is US9682028B2, “Personal care photoprotective compositions with tricyclodecane amides” (Conopco, Inc., priority 2013, dated 2017).

The subject of one experiment is human sebocytes. The experiment is described as follows: Sebocyte assay (sebum suppression, 14C-acetate incorporation). The conditions noted are these: for inhibition at 10 µM: read-out: % Reduction at 10 microMolar; for inhibition at 100 µM: read-out: % Reduction at 100 microMolar. In kind it is cell-based. How it is done:
Sebum suppression effect of the tricyclodecane amides suitable for use in the present invention was investigated.
Secondary cultures of human sebocytes obtained from an adult […] were grown in 96-well tissue culture plates (Packard) until three days post-confluence. Sebocyte growth medium consisted of Clonetics Keratinocyte Basal Medium (KBM) supplemented with 14 μg/ml bovine pituitary extract, 0.4 μg/ml hydrocortisone, 5 μg/ml insulin, 10 ng/ml epidermal growth factor, 1.2×10^−10 M cholera toxin, 100 units/ml penicillin, and 100 μg/ml streptomycin. All cultures were incubated at 37° C. in the presence of 5% CO2. Medium was changed three times per week.
On the day of experimentation, the growth medium was removed and the sebocytes washed three times with sterile Dulbecco's Modified Eagle Medium (DMEM; phenol red free). Fresh DMEM was added to each sample (triplicates) with 5-microliters of test agent solubilized in ethanol. Controls consisted of addition ethanol alone. Each plate was returned to the incubator for 20-hours followed by the addition of ^14C-acetate buffer (5 mM final concentration, 56 mCi/mmol specific activity). Sebocytes were returned to the incubator for 4-hours after which each culture was rinsed 3-times with phosphate buffered saline to remove unbound label. Radioactive label remaining in the sebocytes was determined using a Packard Microbeta, scintillation counter. Phenol Red, a known sebum suppressive agent, was employed as a positive control.

Experiment [1] in a line: In vitro MPF evaluation (monochromatic protection factor). In kind it is physicochemical. The conditions noted are these: summary of Table 4. How it is done:
MPF=monochromatic protection factor=1/Transmittance at a specific wavelength (lower transmittance gives higher MPF therefore higher absorption for the sunscreen). 305 nm=UVB, 360 nm=UVA. MPF was measured using the same apparatus as SPF above. MPF % increase over control (measured MPF at 305 nm and 360 nm for selected formulation−measured MPF at 305 nm and 360 nm of control)/measured MPF at 305 nm and 360 nm of control×100.

Experiment [2] can be described thus: In vitro SPF evaluation (Optometric 290S SPF meter, PMMA plate). In kind it is physicochemical. The conditions noted are these: summary of Table 2. How it is done: SPF, UV-A, and UV-B improvement of compositions within the scope of the invention was investigated.
In vitro SPF measurement was done using the Optometric 290S SPF meter. The product was applied at a dosage of 2 mg/cm^2 on PMMA (polymethylmethacrylate) plate (7 cm×7 cm) and allowed to air dry for 30 minutes. The average SPF value was obtained from 6 SPF readings per plate. Two duplicated runs, the standard deviation from the average was ±2 SPF units. % increase of in vitro SPF versus control calculation: (measured SPF for selected formulation−measured SPF of control)/measured SPF of control×100.

Setting [3] is: 10 microMolar test agent, 20 h incubation then 4 h 14C-acetate, radioactive label remaining in sebocytes.
[4] abbreviates: 100 microMolar test agent, 20 h incubation then 4 h 14C-acetate, radioactive label remaining in sebocytes.

Each structure is given as a SMILES string. Read-outs that look alike come from different tables or passages of the source.

Regarding `CC(C)(C)CC(C)(C)NC(=O)C12CC3CC(CC(C3)C1)C2` [Compound C21, Methanone, (1,1-dimethyl-3,3-dimethylbutylaminyl)tricyclo[3.3.1.1^3,7]dec-1-yl-], the inhibition at 10 µM in the experiment with human sebocytes (setting [3]) came to 26.4%. For the same compound, in the experiment with human sebocytes (setting [4]), the inhibition at 100 µM turned out to be 43.5%.

Take `CC1CCCCN1C(=O)C12CC3CC(CC(C3)C1)C2` (stereo not drawn) [Compound C12, Methanone, (2-methyl-1-piperidinyl)tricyclo[3.3.1.1^3,7]dec-1-yl-]: in the experiment on human sebocytes, the inhibition at 10 µM was 24.5% and the inhibition at 100 µM worked out at 51%.

Regarding `CC(C)N(C(=O)C12CC3CC(CC(C3)C1)C2)C(C)C` [Compound C18, Methanone, (N,N-diisopropyl)tricyclo[3.3.1.1^3,7]dec-1-yl-], in the experiment on human sebocytes, the inhibition at 10 µM came to 42% and the inhibition at 100 µM worked out at 52.5%.

Take `CC(C)CC(C)NC(=O)C12CC3CC(CC(C3)C1)C2` (stereo not drawn) [Compound C22, Methanone, (1,3-dimethyl-butylaminyl)tricyclo[3.3.1.1^3,7]dec-1-yl-]: in the experiment with human sebocytes, the inhibition at 10 µM stood at 29.1% and the inhibition at 100 µM worked out at 45.3%.

With `N#CC1CCN(C(=O)C23CC4CC(CC(C4)C2)C3)CC1` [Compound C6, Methanone, (4-cyano-piperidinyl)tricyclo[3.3.1.1^3,7]dec-1-yl], the inhibition at 10 µM with human sebocytes (setting [3]) turned out to be 24.8%. For the same compound, the inhibition at 100 µM in the experiment on human sebocytes (setting [4]) is 39.4%.

For `O=C(N1CCCCC1)C12CC3CC(CC(C3)C1)C2` [Compound C2, Methanone, (piperidiny)tricyclo[3.3.1.1^3,7]dec-1-yl-], the inhibition at 10 µM in the experiment on human sebocytes (setting [3]) turned out to be 34.3%. The inhibition at 100 µM in the experiment on human sebocytes (setting [4]) stood at 51.6%.

As for `CC1CCN(C(=O)C23CC4CC(CC(C4)C2)C3)CC1` [Compound C13, Methanone, (4-methyl-1-piperidinyl)tricyclo[3.3.1.1^3,7]dec-1-yl], the inhibition at 10 µM in the experiment on human sebocytes (setting [3]) was 63.5%. The inhibition at 100 µM with human sebocytes (setting [4]) worked out at 90.4%.

As for `NC(=O)C1CCN(C(=O)C23CC4CC(CC(C4)C2)C3)CC1` [Compound C7, Methanone, (4-amido-piperidinyl)tricyclo[3.3.1.1^3,7]dec-1-yl-], the inhibition at 10 µM with human sebocytes (setting [3]) stood at 58.9%. Further, the inhibition at 100 µM in the experiment with human sebocytes (setting [4]) amounted to 73.4%.

For the compound `CC(C)(C)CCNC(=O)C12CC3CC(CC(C3)C1)C2` [Compound C19, Methanone, (3,3-dimethylbutylaminyl)tricyclo[3.3.1.1^3,7]dec-1-yl-], the inhibition at 10 µM in the experiment with human sebocytes (setting [3]) came out at 35.9%.

For the compound `CC(C)(C)CNC(=O)C12CC3CC(CC(C3)C1)C2` [Compound C20, Methanone, (2,2-dimethylpropylaminyl)tricyclo[3.3.1.1^3,7]dec-1-yl-], the inhibition at 10 µM in the experiment on human sebocytes (setting [3]) came out at 49.5%. In the experiment on human sebocytes (setting [4]), the inhibition at 100 µM is 82.8%.

For the compound `O=C(N1CCCCCC1)C12CC3CC(CC(C3)C1)C2` [Compound C5, Methanone, (hexahydroazepinyl)tricyclo[3.3.1.1^3,7]dec-1-yl-], the inhibition at 10 µM in the experiment with human sebocytes (setting [3]) was found to be 32.4%. The inhibition at 100 µM in the experiment with human sebocytes (setting [4]) came to 50.5%.

`CC1CCCN(C(=O)C23CC4CC(CC(C4)C2)C3)C1` (stereo not drawn) [Compound C14, Methanone, (3-methyl-1-piperidinyl)tricyclo[3.3.1.1^3,7]dec-1-yl]: in the experiment with human sebocytes, the inhibition at 10 µM was 52.8% and the inhibition at 100 µM is 76%.

For the compound `O=C(N1CCC2CCCCC2C1)C12CC3CC(CC(C3)C1)C2` (stereo not drawn) [Compound C9, Methanone, (decahydroisoquinolinyl)tricyclo[3.3.1.1^3,7]dec-1-yl-], the inhibition at 10 µM with human sebocytes (setting [3]) is 81.2%. Moreover, the inhibition at 100 µM in the experiment on human sebocytes (setting [4]) amounted to 86.8%.

For `CCCCCCCCCCCCCCCCCC(N)=O` [octadecanamide], the “UV-A and UV-B protection improvement (in words)” value in experiment [1] is “did not achieve these improvements”. Further, in experiment [2], the “SPF protection improvement (in words)” value is “did not achieve these improvements”.

With `O=C(N1CCOCC1)C12CC3CC(CC(C3)C1)C2` [Compound C1, Methanone, (morphonyl)tricyclo[3.3.1.1^3,7]dec-1-yl-], the inhibition at 10 µM in the experiment on human sebocytes (setting [3]) was 35.4%. The inhibition at 100 µM with human sebocytes (setting [4]) came to 78.5%.

Regarding `CCC1(C)CCN(C(=O)C23CC4CC(CC(C4)C2)C3)CC1` [Compound C16, Methanone, (4-methyl-4-ethy-piperidinyl)tricyclo[3.3.1.1^3,7]dec-1-yl-], in the experiment with human sebocytes (setting [3]), the inhibition at 10 µM amounted to 49.8%. In the experiment with human sebocytes (setting [4]), the inhibition at 100 µM was 80.7%.

Take `CC1CC(C)CN(C(=O)C23CC4CC(CC(C4)C2)C3)C1` (stereo not drawn) [Compound C15, Methanone, (3,5-dimethyl-1-piperidinyl)tricyclo[3.3.1.1^3,7]dec-1-yl-]: the inhibition at 10 µM in the experiment with human sebocytes (setting [3]) was determined as 40.1%. In the experiment on human sebocytes (setting [4]), the inhibition at 100 µM came out at 71%.

With `O=C(N1CCC1)C12CC3CC(CC(C3)C1)C2` [Compound C4, Methanone, (azetidinyl)tricyclo[3.3.1.1^3,7]dec-1-yl-], in the experiment on human sebocytes, the inhibition at 10 µM was 16.3% and the inhibition at 100 µM came to 27.9%.

`O=S1(=O)OC(c2ccc(O)cc2)(c2ccc(O)cc2)c2ccccc21` [Phenol Red, reference compound]: the inhibition at 10 µM in the experiment on human sebocytes (setting [3]) worked out at 17.1%. Also, in the experiment on human sebocytes (setting [4]), the inhibition at 100 µM amounted to 65.1%.

Consider `CC1(C)CCCN(C(=O)C23CC4CC(CC(C4)C2)C3)C1` [Compound C11, Methanone, (3,3-dimethyl-1-piperidinyl)tricyclo[3.3.1.1^3,7]dec-1-yl], for which, in the experiment on human sebocytes (setting [3]), the inhibition at 10 µM was determined as 39.3%. For the same compound, the inhibition at 100 µM with human sebocytes (setting [4]) was found to be 76.6%.

`O=C(NC12CC3CC(CC(C3)C1)C2)C12CC3CC(CC(C3)C1)C2` [Compound C8, Methanone, (Tricyclo[3.3.1.1^3,7]decanyl)-N-tricyclo[3.3.1.1^3,7]dec-1-yl-]: the inhibition at 10 µM in the experiment on human sebocytes (setting [3]) worked out at 19.1%. For the same compound, the inhibition at 100 µM with human sebocytes (setting [4]) is 58.8%.

Consider `O=C(N1CCCC2CCCCC21)C12CC3CC(CC(C3)C1)C2` (stereo not drawn) [Compound C10, Methanone, (decahydroquinolinyl)tricyclo[3.3.1.1^3,7]dec-1-yl-], for which the inhibition at 10 µM in the experiment on human sebocytes (setting [3]) was 63.4%. Also, the inhibition at 100 µM in the experiment on human sebocytes (setting [4]) was 89.6%.

For the compound `CCC1(CC)CCN(C(=O)C23CC4CC(CC(C4)C2)C3)C1` [Compound C17, Methanone, (3,3-diethyl-pyrrolidinyl)tricyclo[3.3.1.1^3,7]dec-1-yl-], the inhibition at 10 µM with human sebocytes (setting [3]) came out at 32.2%. Also, the inhibition at 100 µM with human sebocytes (setting [4]) came to 65.2%.
